Laboratory results as given in US20220324835A1 (Nurix Therapeutics, Inc., priority 2018, published 2022).

Assays:
[1] = target: Cbl-b (residues 36-427) (Homo sapiens, UniProt Q13191); assay: Cbl-b binding assay (SPR, Biacore T200); conditions: 20° C., 1:1 binding model
Method in brief: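 NeutrAvidin capture chip, 20° C; 50 s injections at 50 μl/min, 90-180 s dissociation; 0.3 M NaCl regeneration. Asterisked column: 50 mM NaCl buffer and 30 nM Src kinase in place of 100 mM NaCl and 60 nM Src kinase. 1:1 fit.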

[2] = target: T1, Cbl-b (Homo sapiens, UniProt Q13191); assay: Cbl-b activity assay (Cbl-b inhibition assay), TR-FRET of Cbl-b interaction with UbcH5B-Ub; type: biochemical; conditions: assay buffer with 100 mM NaCl, 60 nM Src kinase; read-out: Cbl-b activity IC50
Method in brief: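 Compound-treated Cbl-b was incubated 1.5 h with Src kinase (60 nM final; 30 nM for asterisked values, which also used 50 mM instead of 100 mM NaCl), 1 mM ATP and 5 mM MgCl2. Binding to fluorescent Ub-loaded UbcH5B (C85K mutant) was then read by TR-FRET after 1 h more.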

[3] = target: T1, Cbl-b; assay: Cbl-b inhibition assay (Cbl-b activity assay, FRET, Biological Example 1; 100 mM NaCl, 60 nM Src kinase); type: biochemical; conditions: upper bound stated in text lists; read-out: IC50 values in the Cbl-b inhibition assay of Biological Example 1
Method in brief: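 Steps: Src kinase phosphorylates N-terminal biotinylated Avi-tagged Cbl-b; phosphorylated Cbl-b binds Bodipy-fluorescein ubiquitin-loaded UbcH5B; streptavidin-terbium on Cbl-b sits close to the fluorescein label, producing FRET. Inhibitors block UbcH5B-Ub binding.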

T1 sequence (Q13191 36-427): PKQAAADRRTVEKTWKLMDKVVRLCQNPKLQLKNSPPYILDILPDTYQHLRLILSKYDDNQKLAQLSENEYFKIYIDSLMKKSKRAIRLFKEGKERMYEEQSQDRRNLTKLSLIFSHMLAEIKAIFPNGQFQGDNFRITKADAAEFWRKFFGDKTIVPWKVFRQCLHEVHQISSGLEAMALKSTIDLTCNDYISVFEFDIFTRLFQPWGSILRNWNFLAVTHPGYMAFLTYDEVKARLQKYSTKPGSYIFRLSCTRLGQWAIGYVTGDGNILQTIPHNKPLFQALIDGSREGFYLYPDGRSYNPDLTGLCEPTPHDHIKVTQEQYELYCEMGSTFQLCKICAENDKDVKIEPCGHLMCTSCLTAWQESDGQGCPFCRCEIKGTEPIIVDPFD
Cbl-b (residues 36-427), sequence (Q13191 36-427): as above

Which results are given for `C[C@H](Cc1nnco1)c1cccc(N2Cc3c(cccc3C(F)(F)F)C2=O)c1` [Compound 266, (R)-2-(3-(1-(1,3,4-oxadiazol-2-yl)propan-2-yl)phenyl)-4-(trifluoromethyl)isoindolin-1-one]?
Kd [1]: > 10 µM; IC50 [2]: 3 to 10 µM; IC50 [3]: ≤ 10 µM

Which Kd [1] does the source give for `C[C@H](Cc1nccn1C)c1cccc(NC(=O)c2cc(C(=O)N3C[C@@H](O)C[C@H]3C)ccn2)c1` [Compound 253, 4-((2R,4S)-4-hydroxy-2-methylpyrrolidine-1-carbonyl)-N-(3-((R)-1-(1-methyl-1H-imidazol-2-yl)propan-2-yl)phenyl)picolinamide] here?
Its Kd is 3 to 10 µM.

And the IC50 [2]?
Its IC50 is 3 to 10 µM.

And the IC50 [3]?
Its IC50 is ≤ 10 µM.

Which Kd [1] does the source give for `C[C@H](O)CNC(=O)c1ccnc(C(=O)Nc2cccc([C@H](C)Sc3nncn3C)c2)c1` [Compound 157, N^4-((S)-2-hydroxypropyl)-N^2-(3-((S)-1-((4-methyl-4H-1,2,4-triazol-3-yl)thio)ethyl)phenyl)pyridine-2,4-dicarboxamide] here?
Its Kd is 3 to 10 µM.

And the IC50 [2]?
The IC50 was 3 to 10 µM.

What about the IC50 [3] of the same compound?
Its IC50 is ≤ 10 µM.

With `CC(c1cccc(N2Cc3c(cccc3C(F)(F)F)C2=O)c1)C(F)(F)c1nncn1C` (stereo not drawn) [Compound 294, 2-(3-(1,1-difluoro-1-(4-methyl-4H-1,2,4-triazol-3-yl)propan-2-yl)phenyl)-4-(trifluoromethyl)isoindolin-1-one] as the compound, how does the Kd [1] read?
The Kd was < 0.1 µM.

And the IC50 [2]?
The IC50 was 0.301 to 1 µM.

What about the IC50 [3] of the same compound?
The IC50 was ≤ 0.5 µM.

Which Kd [1] does the source give for `C[C@H](Sc1nncn1C)c1cccc(NC(=O)c2cc(C(=O)N3C[C@@H](O)C[C@H]3C)ccn2)c1` [Compound 152, 4-((2R,4S)-4-hydroxy-2-methylpyrrolidine-1-carbonyl)-N-(3-((S)-1-((4-methyl-4H-1,2,4-triazol-3-yl)thio)ethyl)phenyl)picolinamide] here?
Its Kd is 3 to 10 µM.

What about the IC50 [2] of the same compound?
Its IC50 is 3 to 10 µM.

What about the IC50 [3] of the same compound?
Its IC50 is ≤ 10 µM.

How did the Kd [1] turn out when `CCNc1cc(C(C)Sc2nncn2C)cc(N2Cc3c(cccc3C(F)(F)F)C2=O)n1` (stereo not drawn) [Compound 178, 2-[6-(ethylamino)-4-[1-[(4-methyl-1,2,4-triazol-3-yl)sulfanyl]ethyl]-2-pyridyl]-4-(trifluoromethyl)isoindolin-1-one] was run?
The Kd was 0.301 to 1 µM.

And the IC50 [2]?
The IC50 was 0.301 to 1 µM.

What about the IC50 [3] of the same compound?
Its IC50 is ≤ 1 µM.

Which results are given for `C[C@H](Cc1nncn1C)c1cccc(NC(=O)c2cc3ccccc3cn2)c1` [Compound 182, (R)-N-(3-(1-(4-methyl-4H-1,2,4-triazol-3-yl)propan-2-yl)phenyl)isoquinoline-3-carboxamide]?
Kd [1]: 0.301 to 1 µM; IC50 [2]: 0.301 to 1 µM; IC50 [3]: ≤ 0.5 µM

What does the source list for `C[C@H](Cc1nncn1C)c1cccc(N2Cc3c(cc(C(=O)O)cc3C(F)(F)F)C2=O)c1` [Compound 273, (R)-2-(3-(1-(4-methyl-4H-1,2,4-triazol-3-yl)propan-2-yl)phenyl)-3-oxo-7-(trifluoromethyl)isoindoline-5-carboxylic acid]?
Kd [1]: 3 to 10 µM; IC50 [2]: 1 to 3 µM; IC50 [3]: ≤ 10 µM

Which Kd [1] does the source give for `C[C@H](Cc1nncn1C)c1cccc(NC(=O)c2cc(C(=O)N3CCC(C)(O)CC3)ccn2)c1` [Compound 227, (R)-4-(4-hydroxy-4-methylpiperidine-1-carbonyl)-N-(3-(1-(4-methyl-4H-1,2,4-triazol-3-yl)propan-2-yl)phenyl)picolinamide] here?
Its Kd is 3 to 10 µM.

And the IC50 [2]?
The IC50 was 1 to 3 µM.

And the IC50 [3]?
The IC50 was ≤ 10 µM.

What does the source list for `C[C@H](Sc1nncn1C)c1cccc(NC(=O)c2cc(C(=O)N3CCC[C@@H](O)C3)ccn2)c1` [Compound 149, 4-((R)-3-hydroxypiperidine-1-carbonyl)-N-(3-((S)-1-((4-methyl-4H-1,2,4-triazol-3-yl)thio)ethyl)phenyl)picolinamide]?
Kd [1]: > 10 µM; IC50 [2]: 3 to 10 µM; IC50 [3]: ≤ 10 µM

With `CCOc1cccc(C(=O)Nc2cccc([C@H](C)Sc3nncn3C)c2)n1` [Compound 90, 6-Ethoxy-N-[3-[(1S)-1-[(4-methyl-1,2,4-triazol-3-yl)sulfanyl]ethyl]phenyl]pyridine-2-carboxamide] as the compound, how does the Kd [1] read?
Its Kd is 3 to 10 µM.

And the IC50 [2]?
Its IC50 is 1 to 3 µM.

And the IC50 [3]?
Its IC50 is ≤ 10 µM.

For `CNc1cccc(C(=O)Nc2cccc([C@H](C)Sc3nncn3C)c2)c1` [Compound 47, (S)-N-(3-(1-((4-Methyl-4H-1,2,4-triazol-3-yl)thio)ethyl)phenyl)-3-(methylamino)benzamide], which Kd [1] is on record?
Its Kd is 3 to 10 µM.

And the IC50 [2]?
Its IC50 is 3 to 10 µM.

What about the IC50 [3] of the same compound?
The IC50 was ≤ 10 µM.

Which Kd [1] does the source give for `C[C@H](Cc1nncn1C)c1cccc(NC(=O)c2cc(C(=O)N3CC[C@@H](C#N)C3)ccn2)c1` [Compound 238, 4-((R)-3-cyanopyrrolidine-1-carbonyl)-N-(3-((R)-1-(4-methyl-4H-1,2,4-triazol-3-yl)propan-2-yl)phenyl)picolinamide] here?
The Kd was 1 to 3 µM.

What about the IC50 [2] of the same compound?
Its IC50 is 1 to 3 µM.

What about the IC50 [3] of the same compound?
The IC50 was ≤ 10 µM.

For `C[C@H](Cc1nncn1C)c1cccc(NC(=O)c2cc(C(=O)N3C[C@@H]4[C@@H](O)[C@@H]4C3)ccn2)c1` [Compound 234, 4-[(1R,5S,6R)-6-hydroxy-3-azabicyclo[3.1.0]hexane-3-carbonyl]-N-[3-[(2R)-1-(4-methyl-4H-1,2,4-triazol-3-yl)propan-2-yl]phenyl]pyridine-2-carboxamide], which Kd [1] is on record?
Its Kd is 1 to 3 µM.

And the IC50 [2]?
Its IC50 is 1 to 3 µM.

And the IC50 [3]?
The IC50 was ≤ 10 µM.

`C[C@H](Sc1nncn1C)c1ccnc(NC(=O)c2ccc3cccc(F)c3n2)c1` [Compound 107, (S)-8-fluoro-N-(4-(1-((4-methyl-4H-1,2,4-triazol-3-yl)thio)ethyl)pyridin-2-yl)quinoline-2-carboxamide] was tested. Which Kd [1] did it give?
The Kd was 3 to 10 µM.

What about the IC50 [2] of the same compound?
Its IC50 is 1 to 3 µM.

And the IC50 [3]?
Its IC50 is ≤ 10 µM.

For `C[C@H](Cc1nncn1C)c1cccc(NC(=O)c2cc(C(=O)N3C[C@@H](O)C[C@@H]3C)ccn2)c1` [Compound 223, 4-((2S,4S)-4-hydroxy-2-methylpyrrolidine-1-carbonyl)-N-(3-((R)-1-(4-methyl-4H-1,2,4-triazol-3-yl)propan-2-yl)phenyl)picolinamide], which Kd [1] is on record?
The Kd was 3 to 10 µM.

And the IC50 [2]?
Its IC50 is 3 to 10 µM.

What about the IC50 [3] of the same compound?
The IC50 was ≤ 10 µM.

Which results are given for `C[C@H](Sc1nncn1C)c1cccc(NC(=O)c2cccc3scnc23)c1` [Compound 88, N-[3-[(1 S)-1-[(4-methyl-1,2,4-triazol-3-yl)sulfanyl]ethyl]phenyl]-1,3-benzothiazole-4-carboxamide]?
Kd [1]: 3 to 10 µM; IC50 [2]: 1 to 3 µM; IC50 [3]: ≤ 10 µM

How did the Kd [1] turn out when `C[C@H](Sc1nncn1C)c1cccc(NC(=O)c2cccc(C(F)(F)F)c2F)c1` [Compound 42, (S)-2-Fluoro-N-(3-(1-((4-methyl-4H-1,2,4-triazol-3-yl)thio)ethyl)phenyl)-3-(trifluoromethyl)benzamide] was run?
Its Kd is 0.301 to 1 µM.

And the IC50 [2]?
Its IC50 is 0.301 to 1 µM.

And the IC50 [3]?
The IC50 was ≤ 1 µM.

`Cc1nc(C(=O)Nc2cccc([C@H](C)Sc3nncn3C)c2)cs1` [Compound 41, (S)-2-Methyl-N-(3-(1-((4-methyl-4H-1,2,4-triazol-3-yl)thio)ethyl)phenyl)thiazole-4-carboxamide] was tested. Which Kd [1] did it give?
Its Kd is 1 to 3 µM.

And the IC50 [2]?
The IC50 was 1 to 3 µM.

What about the IC50 [3] of the same compound?
The IC50 was ≤ 10 µM.

How did the Kd [1] turn out when `C[C@H](Sc1nncn1C)c1ccnc(NC(=O)c2ccc3c(n2)CCCC3)c1` [Compound 108, (S)-N-(4-(1-((4-methyl-4H-1,2,4-triazol-3-yl)thio)ethyl)pyridin-2-yl)-5,6,7,8-tetrahydroquinoline-2-carboxamide] was run?
Its Kd is 3 to 10 µM.

And the IC50 [2]?
Its IC50 is 1 to 3 µM.

And the IC50 [3]?
The IC50 was ≤ 10 µM.

How did the Kd [1] turn out when `C[C@H](Sc1nncn1C)c1cccc(NC(=O)c2cccc(-c3ccn[nH]3)c2)c1` [Compound 44, (S)-N-(3-(1-((4-Methyl-4H-1,2,4-triazol-3-yl)thio)ethyl)phenyl)-3-(1H-pyrazol-5-yl)benzamide] was run?
Its Kd is 3 to 10 µM.

What about the IC50 [2] of the same compound?
Its IC50 is 3 to 10 µM.

And the IC50 [3]?
Its IC50 is ≤ 10 µM.
